Among the test systems are 786-0 renal; SW-620 colon; SK-OV-3 ovarian; HOP-92 NSCLC; COLO 205 colon; MCF7 breast; NCI-H226 lung; LOX IMVI melanoma; HCT-116 colon; CCRF-CEM leukemia; BT-549 breast.
Assay in all cases: NCI tumour cell line growth inhibition, 48 h

The source of these data is PubChem BioAssay (NCI).

Each structure is given as a SMILES string.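 Step 1: Grow cells in 96-well plates. Step 2: Expose to compound for 48 hours at 5 concentrations. Step 3: Interpolate endpoints linearly; if unreached, use highest concentration. TGI: total growth inhibition.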 Where a SMILES comes first, the peptide text is derived from it. The star is where a group is joined. Fmoc = O=C(OCC1c2ccccc2-c2ccccc21)*; Boc = CC(C)(C)OC(=O)* Where only a bound is given, the exact number is not on record here.

On to `CC1CCC2(CC1)NC1=C(CC(C)CC1)C1=C2CC(C)CC1` (stereo unspecified), for which the TGI is 39.1 µM with 786-0 renal; 37.7 µM with SW-620 colon; > 100 µM in the test on SK-OV-3 ovarian; 39.4 µM with HOP-92 NSCLC; 49.8 µM in the test with COLO 205 colon; 34.5 µM in the test on MCF7 breast. The TGI in the test with NCI-H226 lung turned out to be 30.8 µM; in the test on LOX IMVI melanoma, 34.9 µM; with HCT-116 colon it was 28 µM; with CCRF-CEM leukemia it was 43.6 µM; with BT-549 breast it was 38.4 µM.

As for `COc1ccc(C2C3CCc4ccccc4C3=NN2S(=O)(=O)c2ccc(/C=C/C(=O)O)cc2)cc1` (stereo unspecified), the TGI with 786-0 renal was 15.9 µM; in the test on SW-620 colon, > 100 µM; in the test with SK-OV-3 ovarian, 4.72 µM; in the test with HOP-92 NSCLC, > 100 µM; in the test with COLO 205 colon it was 7.43 µM; with MCF7 breast, 6.55 µM. Moreover, the TGI in the test with NCI-H226 lung was 74.7 µM; in the test with LOX IMVI melanoma it was 24.5 µM; in the test on HCT-116 colon, 38.2 µM; in the test with CCRF-CEM leukemia, 22.9 µM; in the test with BT-549 breast it was > 100 µM.

As to `COC(=O)/C=C/C1(O)C=CC(=O)C=C1`, the TGI was 5.36 µM in the test on 786-0 renal; 42.2 µM in the test on SK-OV-3 ovarian; > 32.1 µM in the test on HOP-92 NSCLC; 23.4 µM with COLO 205 colon; 13.2 µM in the test on MCF7 breast; 47.1 µM with NCI-H226 lung. The TGI came out at 4.74 µM in the test with LOX IMVI melanoma, 3.73 µM in the test on HCT-116 colon, 10.7 µM with CCRF-CEM leukemia and 22.9 µM in the test with BT-549 breast.

Consider `CCOC(=O)C(=O)/C(=C/N1C(=O)CC(=O)NC1=S)C(=O)OCC`, for which the TGI is > 100 µM in the test on 786-0 renal; > 100 µM with SW-620 colon; > 100 µM in the test with SK-OV-3 ovarian; > 92.9 µM in the test with HOP-92 NSCLC; > 100 µM in the test with COLO 205 colon; > 100 µM with MCF7 breast. For the same molecule, the TGI with NCI-H226 lung, with LOX IMVI melanoma, in the test with HCT-116 colon, in the test on CCRF-CEM leukemia and in the test on BT-549 breast was > 100 µM each time.

As to `COc1ccccc1/C=C1\NC(=S)N(/C=C2\C(=O)Oc3ccccc3C2=O)C1=O`, the TGI in the test with 786-0 renal was > 100 µM; with SW-620 colon it was > 100 µM; with SK-OV-3 ovarian, > 100 µM; in the test on HOP-92 NSCLC, 53.3 µM; in the test with COLO 205 colon it was > 100 µM; in the test with MCF7 breast, > 100 µM. Further, the TGI was > 100 µM in the test with NCI-H226 lung; > 100 µM in the test with LOX IMVI melanoma; > 100 µM with HCT-116 colon; 76.5 µM in the test with CCRF-CEM leukemia; > 100 µM in the test on BT-549 breast.

Turning to `O=C1C=CC(=O)c2c1ccc1c3ccccc3n(Cc3cccc([N+](=O)[O-])c3)c21`, the TGI in the test on 786-0 renal is > 61.4 µM; with SW-620 colon it was 32.4 µM; with SK-OV-3 ovarian it was > 100 µM; in the test on HOP-92 NSCLC it was 43.7 µM; in the test with COLO 205 colon, 21.2 µM; with MCF7 breast, 65.6 µM. Moreover, the TGI in the test on NCI-H226 lung is > 100 µM; with LOX IMVI melanoma, > 100 µM; with HCT-116 colon, > 62.7 µM; in the test with CCRF-CEM leukemia, 23 µM; in the test on BT-549 breast, > 69.7 µM.

Take `Nc1nc2c(ncn2Cc2ccccc2CO)c(=O)[nH]1`: the TGI in the test with 786-0 renal, in the test with SW-620 colon, with SK-OV-3 ovarian, in the test with HOP-92 NSCLC, with COLO 205 colon and with MCF7 breast was > 100 µM throughout. Besides, the TGI in the test with NCI-H226 lung, in the test on LOX IMVI melanoma, in the test on HCT-116 colon, in the test with CCRF-CEM leukemia and in the test on BT-549 breast was > 100 µM throughout.

As for `C=C(CN1CC2C[C@](C(=O)OC)(c3cc4ccccc4[nH]3)C1C(OC)C2OC)S(=O)(=O)c1ccccc1` (stereo partly specified), the TGI in the test with 786-0 renal is 10 µM; with SW-620 colon it was 22.8 µM; in the test with SK-OV-3 ovarian, 13.8 µM; in the test with HOP-92 NSCLC, 8.33 µM; in the test with COLO 205 colon, 6.14 µM; in the test with MCF7 breast, 18.9 µM. Moreover, the TGI in the test on NCI-H226 lung was 18.8 µM; with LOX IMVI melanoma it was 3.54 µM; in the test on HCT-116 colon it was 7.08 µM; in the test on CCRF-CEM leukemia, > 77.2 µM; in the test with BT-549 breast, 12.4 µM.

`Fc1ccc(-c2sc(-c3cccs3)cc2Cc2cccs2)cc1`: the TGI in the test on 786-0 renal, in the test on SW-620 colon, with SK-OV-3 ovarian, in the test with HOP-92 NSCLC, in the test on COLO 205 colon and in the test with MCF7 breast was > 100 µM in each case. The TGI in the test on NCI-H226 lung, with LOX IMVI melanoma, in the test with HCT-116 colon, in the test with CCRF-CEM leukemia and with BT-549 breast was > 100 µM each time.

On to `O=C(C/C(=N/O)c1cc(-c2ccccc2)no1)c1ccccc1`, for which the TGI with 786-0 renal is 42.3 µM; in the test on SK-OV-3 ovarian, 38.4 µM; in the test with HOP-92 NSCLC, 58 µM; in the test on COLO 205 colon, > 100 µM; with MCF7 breast, > 100 µM; with NCI-H226 lung, 56.7 µM. Moreover, the TGI is > 100 µM in the test on LOX IMVI melanoma, 60 µM in the test with HCT-116 colon, > 100 µM in the test on CCRF-CEM leukemia and 75.1 µM in the test on BT-549 breast.

Take `O=C1C=C(OCCCCl)C(=O)c2c(O)ccc(O)c21`: the TGI in the test on 786-0 renal came out at 2.94 µM; in the test on SW-620 colon, 2.3 µM; in the test on SK-OV-3 ovarian, 3.85 µM; in the test with HOP-92 NSCLC it was 2.89 µM; with COLO 205 colon, 0.642 µM; in the test on MCF7 breast it was 0.438 µM. Also, the TGI turned out to be 3.7 µM in the test with NCI-H226 lung; 0.659 µM in the test on LOX IMVI melanoma; 1.28 µM in the test with HCT-116 colon; 3.75 µM in the test with CCRF-CEM leukemia; 2.56 µM in the test on BT-549 breast.

Turning to `CCN(CC)CCNc1ccc2nnn3c4ccc(O)cc4c(=O)c1c23`, the TGI with 786-0 renal was found to be 15.6 µM; in the test on SW-620 colon it was 15.6 µM; in the test on SK-OV-3 ovarian, 40.3 µM; in the test on HOP-92 NSCLC, 18.2 µM; in the test with COLO 205 colon, 16.9 µM; with MCF7 breast, 28.1 µM. Besides, the TGI in the test with NCI-H226 lung worked out at 14.7 µM; with LOX IMVI melanoma, 4.05 µM; in the test on HCT-116 colon, 15.6 µM; in the test with CCRF-CEM leukemia it was 31.6 µM; in the test on BT-549 breast, 25.5 µM.

Take `Cc1nnc(N)nc1/C=C/c1c(O)ccc2ccccc12`: the TGI was > 100 µM with 786-0 renal; > 100 µM in the test with SW-620 colon; > 100 µM with SK-OV-3 ovarian; 86.9 µM in the test on HOP-92 NSCLC; > 100 µM in the test with COLO 205 colon; > 100 µM with MCF7 breast. Moreover, the TGI was 44.5 µM in the test with NCI-H226 lung; > 100 µM in the test on LOX IMVI melanoma; > 100 µM in the test with HCT-116 colon; > 100 µM in the test on CCRF-CEM leukemia; > 100 µM in the test with BT-549 breast.

Take `c1ccc2c(c1)CCc1[nH]c3c(c1-2)-c1ccccc1CC3`: the TGI in the test with 786-0 renal, in the test with SW-620 colon, with SK-OV-3 ovarian, with HOP-92 NSCLC, with COLO 205 colon and in the test on MCF7 breast was > 100 µM each time. The TGI in the test on NCI-H226 lung, in the test with LOX IMVI melanoma, with HCT-116 colon, in the test on CCRF-CEM leukemia and with BT-549 breast was > 100 µM throughout.

For the molecule `CC(C)(C)OC(=O)NCCCCC(NC(=O)C(Cc1c[nH]c2ccccc12)NC(=O)OCC1c2ccccc2-c2ccccc21)C(=O)N1CCCC1C(=O)NCC(N)=O` (stereo unspecified) (Fmoc-WK(Boc)PG-NH2; configuration not given here), the TGI in the test with 786-0 renal, with SW-620 colon, in the test with SK-OV-3 ovarian, in the test on HOP-92 NSCLC, in the test on COLO 205 colon and in the test on MCF7 breast was > 100 µM in each case. For the same molecule, the TGI with NCI-H226 lung, with LOX IMVI melanoma, in the test on HCT-116 colon, with CCRF-CEM leukemia and with BT-549 breast was > 100 µM in each case.

For the molecule `OCCOc1ccccc2cccc1-2`, the TGI in the test on 786-0 renal, with SW-620 colon, with SK-OV-3 ovarian, in the test on HOP-92 NSCLC, with COLO 205 colon and in the test with MCF7 breast was > 100 µM each time. In addition, the TGI in the test on NCI-H226 lung, in the test with LOX IMVI melanoma, with HCT-116 colon, in the test with CCRF-CEM leukemia and with BT-549 breast was > 100 µM in each case.

For `C[C@@H](NC(=O)c1ccc(CNC(=O)/C=C/c2cccc(Oc3ccccc3)c2)cc1)c1ccccc1`, the TGI in the test with 786-0 renal was 35.4 µM; with SW-620 colon, > 100 µM; with SK-OV-3 ovarian, > 100 µM; in the test on HOP-92 NSCLC it was > 100 µM; in the test on COLO 205 colon, > 100 µM; in the test with MCF7 breast, > 100 µM. For the same molecule, the TGI in the test on NCI-H226 lung was > 73.5 µM; in the test on LOX IMVI melanoma, > 100 µM; with HCT-116 colon it was > 100 µM; in the test with CCRF-CEM leukemia it was > 100 µM; in the test with BT-549 breast, > 100 µM.

With `COC(=O)C1=C(C)C=C(N2CCOCC2)C(C(=O)OC)C1c1ccccc1` (stereo unspecified), the TGI in the test with 786-0 renal, in the test on SW-620 colon, with SK-OV-3 ovarian, in the test with HOP-92 NSCLC, in the test on COLO 205 colon and in the test on MCF7 breast was > 10 µM throughout. Besides, the TGI with NCI-H226 lung, in the test with LOX IMVI melanoma, in the test on HCT-116 colon, with CCRF-CEM leukemia and in the test on BT-549 breast was > 10 µM throughout.
